Reference: patent US7314726B2, “Beta secretase exosite binding peptides and methods for identifying beta secretase modulators” (Bristol-Myers Squibb Company, priority 2002, dated 2008)

Molecular target: BACE (Homo sapiens, UniProt P56817)
Assay: Isothermal titration calorimetry (ITC) of BACE and peptides
Format: binding
Parameters: The cDNA for the catalytic domain of human BACE (residues 1-460) was PCR-amplified; human IgG1 heavy chain (C, cleaved yes); thrombin cleavage site (C); made in house; host or cells: CHO DG44 cells (stably transfected, secreted)
Protocol: Isothermal titration calorimetry was performed to determine quantitatively the binding affinities of BMS-561877 and BMS-561871 for β-secretase. Recombinant human BACE was expressed as a fusion protein with human IgG1, in Chinese hamster ovary (CHO) cells (Vassar et al., (1999) Science 286:735-741 and Haniu et al., (2000) J. Biol. Chem. 275:21099-21106).
This construct, referred to as BACE-T-IgG, also contained a protease cleavage site between BACE and IgG1, sensitive to human α-thrombin. The cDNA for the catalytic domain of human BACE (residues 1-460) was PCR-amplified and subcloned into the mammalian expression vector pTV1.6, upstream of a thrombin cleavage site linked to cDNA encoding human IgG1 heavy chain. The vector construct, pTV1.6-BACE-T-IgG, was used to produce stably transfected DHFR-deficient CHO DG44 cells, which were then scaled up using methotrexate for selection.
The clarified growth media harvested from CHO DG44 cells which contained the fusion protein was loaded onto a rProtein A SEPHAROSE™ column (5×20 cm, Amersham Pharmacia Biotech) using a peristaltic pump at 4° C., at 4 mL/min. The column was washed with Dulbecco's PBS, pH 7.1, 4 mL/min, until baseline absorbance at 280 nm was observed. BACE-T-IgG was eluted from the resin with 0.10 M citrate, pH 3.0, into tubes containing 0.5 volumes of 4 M Tris, pH 8. Fractions containing the fusion protein were dialyzed extensively using 12,000-14,000 […] MWCO membrane (UltraPURE, GIBCO BRL) against PBS, pH 7.1, at 4° C. The protein was sterile filtered (0.22 μm) and stored at 4° C.
To generate BACE for binding experiments, the fusion protein BACE-T-IgG was treated with human α-thrombin (Enzyme Research Labs, South Bend, Ind.) at a ratio of 1:500 (mass:mass) in Dulbecco's PBS, pH 7.1, at 37° C. for 2 hr. Human α-thrombin was removed by passing the sample over Benzamidine SEPHAROSE™ 6B column (Amersham Pharmacia Biotech). The cleaved IgG1 was captured by passing the solution over a rProtein A SEPHAROSE™ (Amersham Pharmacia Biotech) column, whereas the BACE passed through this column. The protein sample was further purified by concentrating to 10-15 mg/mL using a centrifugation concentration unit (Millipore Ultrafree 10 kDa MWCO, 15 mL unit) and loading onto a SUPERDEX™ 200 PC 3.2/30 gel-filtration column (Amersham Pharmacia Biotech). The column was run at 3 mL/min with Dulbecco's PBS, pH 7.1, at room temperature. Fractions containing BACE were combined, sterile filtered (0.22 μm) and stored at 4° C.
BACE was prepared for isothermal titrating calorimetry by extensive dialysis against fresh buffer at 4° C. using 12,000-14,000 […] MWCO dialysis membrane (UltraPURE, GIBCO BRL). […] Following 2 buffer changes, the protein was removed from the membrane and centrifuged (5 min×4000 g, 4° C.) to remove particulates. The protein was stored at 4° C. until needed for the calorimetry experiments. The protein concentration was determined by 10-fold dilution into the same buffer, and measuring the UV absorbance at 280 nm in a 1.00 cm pathlength cell (calculated value=1.22 AU=1.00 mg/mL protein, based on mean glycosylated molecular weight=53.5 kDa, and given amino acid composition). Final concentrations used in isothermal titrating calorimetry were typically 5.0 μM, containing a final concentration of 0.5% v/v DMSO.
Peptides were dissolved in the buffer dialysate from protein dialysis, and equal volumes of DMSO were added to each (0.5% v/v DMSO). The pH values of the solutions were adjusted as necessary to equal that of the buffer dialysate and protein sample within 0.01 pH units.

[1] = pH 5.3, 37° C., sample cell: CHO BACE
[2] = pH 5.3, 37° C., sample cell: CHO BACE: OM99-2 (10-fold excess added first)

Sequence of BACE (P56817 46-460 limits assumed): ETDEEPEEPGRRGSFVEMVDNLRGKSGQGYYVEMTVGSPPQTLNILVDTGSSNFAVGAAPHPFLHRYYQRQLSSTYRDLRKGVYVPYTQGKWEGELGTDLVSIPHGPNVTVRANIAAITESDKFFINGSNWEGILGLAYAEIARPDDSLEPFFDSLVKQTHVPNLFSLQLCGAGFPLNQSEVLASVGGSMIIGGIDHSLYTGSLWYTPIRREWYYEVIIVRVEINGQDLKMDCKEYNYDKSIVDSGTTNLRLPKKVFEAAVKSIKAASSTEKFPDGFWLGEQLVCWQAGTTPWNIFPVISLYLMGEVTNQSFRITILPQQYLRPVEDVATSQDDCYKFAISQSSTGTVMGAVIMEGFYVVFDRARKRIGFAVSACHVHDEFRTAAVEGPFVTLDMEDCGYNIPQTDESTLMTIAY

KA (25° C., Dulbecco's PBS, pH 7.1): 1.65e+07 M⁻¹
Kd (25° C., Dulbecco's PBS, pH 7.1): 61 nM
n (binding stoichiometry) (25° C., Dulbecco's PBS, pH 7.1): 1.03
ΔH (25° C., Dulbecco's PBS, pH 7.1): -12.9 kcal/mol
Kd [1]: 380 nM
T(dS) [1]: -6.8 kcal/mol
ΔG [1]: -9.1 kcal/mol
ΔH [1]: -15.9 kcal/mol
Kd [2]: 280 nM
T(dS) [2]: -5.7 kcal/mol
ΔG [2]: -9.3 kcal/mol
ΔH [2]: -15.0 kcal/mol
Substance: Ac-NLTTYPYFIPLP-OH [BMS-561871]
